Laboratory results as given in the supplement of paper PMC10307832.

What follows are cell lines tested with CC(C)=CC[C@@H](O)C1=CC(=O)c2c(O)ccc(O)c2C1=O [Shikonin] + O=C(c1cc(Cc2n[nH]c(=O)c3ccccc23)ccc1F)N1CCN(C(=O)C2CC2)CC1 [Olaparib] (partner 8 µM) (assay: relative viability (nuclei count vs DMSO), 5 days (fraction); higher = more cells survive). Settings: first compound 0.01 µM.
In short: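 Five library-drug doses in √10 steps were combined with a fixed anchor-drug dose, or a single drug was given alone, by pin tool to lung cancer cell lines in 1536-well plates the day after seeding. Nuclei were stained and counted after 5 days. Relative viability is the nuclei count in treated wells over that in vehicle wells, taken as the median of duplicate plates.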

Cell Line | relative viability
NCI-H1703 | 0.42
NCI-H2009 | 0.774
NCI-H1993 | 0.92
NCI-H520 | 0.323
PC-3 [JPC-3] | 1.08
LCLC-103H | 0.793
NCI-H647 | 0.723
NCI-H2228 | 0.987
EMC-BAC-2 | 0.484
NCI-H2087 | 0.696
Calu-6 | 0.6
HCC-366 | 0.423
NCI-H1666 | 0.748
NCI-H650 | 0.373
LK-2 | 0.744
NCI-H2126 | 0.953
NCI-H1648 | 0.846
SK-MES-1 | 0.887
H3255 | 0.552

Cell Line | relative viability
COR-L23 | 0.401
COR-L 105 | 0.672
IA-LM | 0.993
LOU-NH91 | 0.926
ChaGo-K-1 | 0.425
NCI-H2170 | 0.623
NCI-H3122 | 0.655
HOP-62 | 0.267
HCC-44 | 0.963
A549 | 0.351
NCI-H522 | 0.645
SW 900 | 1.05
NCI-H2023 | 0.478
NCI-H1299 | 0.969
NCI-H661 | 0.847
CAL-12T | 0.767
SW 1573 | 0.661
SK-LU-1 | 0.45

Same assay, conditions: first compound 0.1 µM

Cell Line | relative viability
NCI-H2342 | 0.392
PC-14 | 0.235
NCI-H1650 | 0.787
EBC-1 | 0.698
NCI-H1703 | 0.47
NCI-H2009 | 0.691
NCI-H1993 | 0.943
NCI-H520 | 0.368
PC-3 [JPC-3] | 1.16
LCLC-103H | 0.94
NCI-H647 | 0.597
NCI-H2228 | 0.808
EMC-BAC-2 | 0.562
NCI-H2087 | 0.544
Calu-6 | 0.695
HCC-366 | 0.428
NCI-H1666 | 0.732
NCI-H650 | 0.406
LK-2 | 0.887
NCI-H2126 | 1.14

Cell Line | relative viability
SK-MES-1 | 0.665
H3255 | 0.542
COR-L23 | 0.306
COR-L 105 | 0.796
IA-LM | 0.891
LOU-NH91 | 0.937
ChaGo-K-1 | 0.438
NCI-H2170 | 0.594
NCI-H3122 | 0.631
HOP-62 | 0.455
HCC-44 | 1.01
A549 | 0.454
NCI-H522 | 0.614
SW 900 | 0.776
NCI-H2023 | 0.559
NCI-H1299 | 0.986
NCI-H661 | 0.879
CAL-12T | 0.849
SW 1573 | 0.557
SK-LU-1 | 0.413

Same assay, conditions: first compound 0.3162 µM

Cell Line | relative viability
NCI-H2342 | 0.38
PC-14 | 0.191
NCI-H1650 | 0.732
EBC-1 | 0.758
NCI-H1703 | 0.395
NCI-H2009 | 0.624
NCI-H1993 | 1.12
NCI-H520 | 0.283
PC-3 [JPC-3] | 1.33
LCLC-103H | 0.788
NCI-H647 | 0.488
NCI-H2228 | 0.681
EMC-BAC-2 | 0.486
NCI-H2087 | 0.592
Calu-6 | 0.556
HCC-366 | 0.33
NCI-H1666 | 0.773
NCI-H650 | 0.399
LK-2 | 0.75
NCI-H2126 | 0.943
NCI-H1648 | 1.08

Cell Line | relative viability
SK-MES-1 | 0.723
H3255 | 0.597
COR-L23 | 0.307
COR-L 105 | 0.558
IA-LM | 0.893
LOU-NH91 | 0.984
ChaGo-K-1 | 0.387
NCI-H2170 | 0.588
NCI-H3122 | 0.621
HOP-62 | 0.379
HCC-44 | 1.07
A549 | 0.305
NCI-H522 | 0.597
SW 900 | 0.917
NCI-H2023 | 0.622
NCI-H1299 | 0.976
NCI-H661 | 0.73
CAL-12T | 0.789
SW 1573 | 0.321
SK-LU-1 | 0.441

Same assay, conditions: first compound 1 µM

Cell Line | relative viability
NCI-H2342 | 0.383
PC-14 | 0.121
NCI-H1650 | 0.718
EBC-1 | 0.602
NCI-H1703 | 0.241
NCI-H2009 | 0.497
NCI-H1993 | 1.32
NCI-H520 | 0.295
PC-3 [JPC-3] | 1.27
LCLC-103H | 0.839
NCI-H647 | 0.47
NCI-H2228 | 0.272
EMC-BAC-2 | 0.427
NCI-H2087 | 0.551
Calu-6 | 0.356
HCC-366 | 0.404
NCI-H1666 | 0.699
NCI-H650 | 0.345
LK-2 | 0.753
NCI-H2126 | 0.92
NCI-H1648 | 0.816

Cell Line | relative viability
SK-MES-1 | 0.495
H3255 | 0.509
COR-L23 | 0.24
COR-L 105 | 0.606
IA-LM | 0.885
LOU-NH91 | 0.896
ChaGo-K-1 | 0.462
NCI-H2170 | 0.576
NCI-H3122 | 0.679
HOP-62 | 0.676
HCC-44 | 0.993
A549 | 0.302
NCI-H522 | 0.491
SW 900 | 0.717
NCI-H2023 | 0.437
NCI-H1299 | 0.832
NCI-H661 | 0.646
CAL-12T | 0.639
SW 1573 | 0.0736
SK-LU-1 | 0.468
